Common to all, as to assay type: cell-based, mouse
In test [1] the test system is BMDMs. The test can be described thus: Stable isotope-assisted tracing (15N2-glutamine) in BMDMs. The note with it: 15N2-glutamine tracing, LPS-treated BMDMs, LPS 4 h. Here is the method: All compounds used DMSO as a vehicle except for 4-hydroxy tamoxifen (EtOH), NAC (PBS), and AOAA for tracing experiments (Media). LPS was used at a concentration of 100 ng/ml for indicated timepoints (2, 3, 4, 6, 8, 24, 48 h). FHIN1 (10 or 20 μM), MMF (50 or 100 μM), DMF (25 μM), AOAA (5 mM), oligomycin (10 μM), CCCP (50 μM) NAC (1 mM), and IMT1 (10 μM) pre-treatments were performed for 3 h prior the addition of LPS. Cells were treated with valinomycin (10 nM) 15 mins before LPS stimulation. Anti-CD210 or IgG control (10 μg/ml) antibodies were added to cells 1 h prior to LPS stimulation. Recombinant mouse IL-10 protein (100 ng/ml) was added to cells at the same time as LPS. Cells were treated with IFN-B1 (220 ng/ml) for 3 h. Cells were treated with C-178 (1 μM) 1 h prior to LPS stimulation or transfection with 2′3′-cGAMP (1.5 μg/ml) for 4 hrs to achieve cGAS-STING activation. […]
BMDMs (3 independent mice) were plated at 0.5×10^6 cells/well in 12-well plates in technical triplicate per condition, treated as indicated in glutamine-free DMEM supplemented with U-^13C-glutamine or ^15N2-glutamine, respectively. For ^13C- and ^15N-tracing analysis, the theoretical masses of ^13C and ^15N isotopes were calculated and added to a library of predicted isotopes in Tracefinder 5.0. […]

The test system of test [2] is BMDMs. The test can be described thus: LC-MS steady-state metabolomics / fumarate levels in BMDMs. To be noted: BMDMs, AOAA 5 mM pre-treatment, LPS 4 h. Here is the method: (§1) All compounds used DMSO as a vehicle except for 4-hydroxy tamoxifen (EtOH), NAC (PBS), and AOAA for tracing experiments (Media). LPS was used at a concentration of 100 ng/ml for indicated timepoints (2, 3, 4, 6, 8, 24, 48 h). FHIN1 (10 or 20 μM), MMF (50 or 100 μM), DMF (25 μM), AOAA (5 mM), oligomycin (10 μM), CCCP (50 μM) NAC (1 mM), and IMT1 (10 μM) pre-treatments were performed for 3 h prior the addition of LPS. Cells were treated with valinomycin (10 nM) 15 mins before LPS stimulation. Anti-CD210 or IgG control (10 μg/ml) antibodies were added to cells 1 h prior to LPS stimulation. Recombinant mouse IL-10 protein (100 ng/ml) was added to cells at the same time as LPS. Cells were treated with IFN-B1 (220 ng/ml) for 3 h. Cells were treated with C-178 (1 μM) 1 h prior to LPS stimulation or transfection with 2′3′-cGAMP (1.5 μg/ml) for 4 hrs to achieve cGAS-STING activation. Cells were treated with ODN 2088 (1 μM) for 1 hr prior to LPS stimulation or transfection with CPG ODN 1826 (1.5 μg/ml) to achieve TLR9 activation. 3 different timepoints of 4-hydroxy tamoxifen (TAM) (600 nM or 2 μM) or EtOH treatment were performed-these are specified in the individual figure legends. For ‘48 h’ treatments EtOH/TAM was added on day 5 of 6 during the BMDM differentiation protocol. On day 6 they were plated with EtOH/TAM (left overnight) and treated the following day. For ‘72 h’ treatments EtOH/TAM was added on day […] of 6 during the BMDM differentiation protocol. On day 6 they were plated with EtOH/TAM (left overnight) and treated the following day. For ‘96 h’ treatments EtOH/TAM was added on day […] of 6 during the BMDM differentiation protocol. On day 6 they were plated with EtOH/TAM and treated 2 days later.
BMDMs (3 independent mice) were plated at 0.5×10^6 cells/well in 12-well plates in technical triplicate per condition, treated as indicated, snap frozen and stored at −80° C. For metabolomics on cytosolic fraction, BMDMs were plated at 10×10^6 cells/10 cm dish and rapid fractionation was performed as previously reported^16. Metabolite extraction solution (MES) (methanol/acetonitrile/water, 50:30:20 v/v/v) was added (0.5 mL per 1×10^6 cells) and samples were incubated for 15 min on dry ice. The resulting suspension was transferred to ice-cold microcentrifuge tubes. Samples were agitated for 20 min at 4° C. in a thermomixer and then incubated at −20° C. for 1 h. Samples were centrifuged at maximum speed for 10 min at 4° C. The supernatant was transferred into a new tube and centrifuged again at maximum speed for 10 min at 4° C. The supernatant was transferred to autosampler vials and stored at −80° C. prior to analysis by LC-MS.
HILIC chromatographic separation of metabolites was achieved using a Millipore Sequant ZIC-PHILIC analytical column (5 μm, 2.1×150 mm) equipped with a 2.1×20 mm guard column (both […] particle size) with a binary solvent system. Solvent A was 20 mM ammonium carbonate, 0.05% ammonium hydroxide; Solvent B was acetonitrile. The column oven and autosampler tray were held at 40° C. and 4° C., respectively. The chromatographic gradient was run at a flow rate of 0.200 mL/min as follows: 0-2 min: 80% B; 2-17 min: linear gradient from 80% B to 20% B; 17-17.1 min: linear gradient from 20% B to 80% B; 17.1-22.5 min: hold at 80% B. Samples were randomized and analysed with LC-MS in a blinded manner and the injection volume was 5 μl. Pooled samples were generated from an equal mixture of all individual samples and analysed interspersed at regular intervals within sample sequence as a quality control. Metabolites were measured with a Thermo Scientific Q Exactive Hybrid Quadrupole-Orbitrap Mass spectrometer (HRMS) coupled to a Dionex Ultimate 3000 UHPLC or with Vanquish Horizon UHPLC coupled to an Orbitrap Exploris 240 mass spectrometer (both Thermo Fisher Scientific) via a heated electrospray ionization source. […]

The subject of test [3] is BMDMs. Briefly: ELISA of cytokine release from BMDMs. To be noted: BMDMs pre-treated 3 h, LPS 4 h. Here is the method:
as §1
Pre-designed silencer select siRNAs for Cgas (s103166), Tmem173 (s91058), Tlr3 (s100579), Tlr9 (s96268), As/(s99640), Tlr7 (s100720), Ddx58 (s106376), Ifih1 (s89787), Nrf2 (s70522), Atf4 (s62689) and negative control (4390843) were ordered from Thermo Fisher. siRNA sequences are given in Table S2. Cells were transfected with 50 nM siRNA using 5 μl lipofectamine RNAiMAX according to manufacturer's instructions (Thermo Fisher). Cells were transfected in medium without serum and antibiotics which was replaced with complete medium 8 hours later. Cells were subsequently left for at least a further 12 hours prior to treatment.
BMDMs were plated in the presence or absence of ultrapure ethidium bromide (100 ng/ml) and incubated for a further 6 days prior to treatment. Depletion of mtDNA was determined by genomic DNA isolation followed by qPCR using primers specific for areas of mitochondrial DNA (D-loop) and areas of mtDNA that are not inserted into nuclear DNA (Non-NUMT).
DuoSet ELISA kits for IL-1β, TNFα, IL-6, IL-10, and GDF15 were purchased from R&D Systems and were carried out according to the manufacturer's instructions with appropriately diluted cell supernatants added to each plate in duplicate or triplicate. IFN-β was determined using DuoSet ELISA kit from R&D Systems or Abcam (ab252363). Quantikine ELISA kit for IFN-β (R&D Systems) was used for determination of IFN-β concentration in serum samples and from human cells, and these were also carried out according to the manufacturer's instructions. Absorbance at 450 nm was quantified using a FLUOstar Optima plate reader. Corrected absorbance values were calculated by subtracting the background absorbance, and cytokine concentrations were subsequently obtained by extrapolation from a standard curve plotted on GraphPad Prism 9.2.0.

With `NOCC(=O)O` [AOAA, aminooxyacetic acid], the “contribution of glutamine nitrogen to aspartate, asparagine, arginine and citrulline” value in the test on BMDMs [1] is “completely prevented”. Also, in the test on BMDMs [2], the “aspartate, asparagine, argininosuccinate levels following LPS stimulation” value is given as “reduced” and the “fumarate levels following LPS stimulation” value is reported as “reduced”. Moreover, in the test with BMDMs [3], the IL-10 release result was “modestly increased” and the TNF-α release entry is “reduced”.
